Measurements: PubChem BioAssay AID2060490 (Molecular Pharmacology Branch, DTP, NCI, 2025)

Test system: 885512-296-R-J2-PDC complex spheroid viability
Assay: Anticancer human tumor 885512-296-R-J2-PDC patient-derived breast carcinoma cell line growth inhibition [GQUAD]
Settings: for IC50: curve of first compound; for viability, T/C: stronger effect = lower value
Description: DNA G-quadruplex Stabilizer Agents in Combinations in Complex Spheroids
A high-throughput screen of multi-cell type tumor spheroids was designed to identify active combinations of DNA G-quadruplex stabilizer agents and targeted small molecules. Complex spheroids include a stromal component modeled by human endothelial cells (HUVEC) and fibroblasts modeled by human mesenchymal stem cells (MSCs). The concentration ranges selected for each drug and investigational agent were based upon clinically achievable concentrations if the clinical Cmax of the agent was known.
Compounds. The drugs and investigational agents: pidnarulex (CX-5461; NSC782164), APTO-253 (NSC789042), BRACO-19 (NSC847499), peposertib (NSC802822), ceralasertib (NSC780249), elimusertib (NSC800525), camonsertib (NSC841442), AZD-1390 (NSC803789), olaparib (NSC753686), talazoparib (NSC767125), ART-558 (NSC835418), sotorasib (NSC818433), MRTX-1133 (NSC836407), SN-38 (NSC673596), topotecan (NSC609699), etoposide (NSC141540), doxorubicin (NSC123127), gemcitabine (NSC613327), 5-fluorouracil (NSC19893), paclitaxel (NSC125973), vemurafenib (NSC761431), panobinostat (NSC761190), R-306465 (JNJ-16241199; NSC773264), adavosertib (NSC754352), TP-3654 (NSC805149), carboplatin (NSC241240), KSQ-4279 (NSC840948), and staurosporine (NSC755774) were obtained from the National Cancer Institute (NCI) Developmental Therapeutics Program Chemical Repository (34). The FDA-approved anticancer drug set is available from the NCI Developmental Therapeutics Program. […] The stock solutions were prepared in dimethyl sulfoxide (DMSO, Sigma-Aldrich, St. Louis, MO, cat. D2650) at 800-fold the tested concentration and stored at -70 degrees C prior to their use. All drugs and investigational agents were tested over a range starting from a high concentration at or near the clinical Cmax and decreasing in half-log increments. If the clinical Cmax for an agent had not been determined, the highest concentration tested was 10 microM.
2.3 Cell Culture. All cells were maintained in an incubator at 37 degrees C and 5% CO2 with 95% humidity. The PDC lines were cultured according to standard operating procedures established by the NCI PDMR. All PDCs were thawed and cultured in Matrigel-coated flasks prepared with a working solution of 1X Ham's F-12 nutrient mix, without supplementation (Invitrogen, cat. 11765054), 100 U/mL penicillin-streptomycin (Invitrogen, cat. 15140122), and 2.5% Matrigel (Corning Inc., cat. 354248) for the first three passages. The 857933-349-R-J2-PDC line was cultured in 6C/Colon 1B media, which includes advanced DMEM/F-12 (Thermo Fisher Scientific, cat. 12634028), 10 mM HEPES (Thermo Fisher Scientific, cat. 15630080), 1X GlutaMAX supplement (Thermo Fisher Scientific, cat. 35050061), 0.1 mg/mL primocin (InvivoGen, cat. ant-pm-2), 10% defined fetal bovine serum, heat inactivated (HyClone Laboratories Inc., cat. SH30070.03HI), 50% L-WRN conditioned media (ATCC, cat. CRL-3276), 1.25 mM N-Acetyl-L-cysteine (Sigma-Aldrich, cat. A9165), 10 mM nicotinamide (Sigma-Aldrich, cat. N0636), 1X B-27 supplement (Thermo Fisher Scientific, cat. 17504044), 1X N-2 supplement (Thermo Fisher Scientific, cat. 17502048), 10 microM Y-27632 dihydrochloride (Tocris Bioscience, cat. 1254), and 50 ng/mL human EGF recombinant protein (Thermo Fisher Scientific, cat. PHG0311). The 485176-168-R4-J1-PDC line was cultured in Panc media, which includes all 6C/Colon 1B media components plus 100 ng/mL human FGF-10 (Thermo Fisher Scientific, cat. 100-26), 500 nM SB-431542 (Selleckchem, cat. S1067), and gastrin (Tocris, cat. 3006).
[…]

[1] = second compound 0.0316 µM, first compound 0.0316 µM
[2] = second compound 0.0316 µM, first compound 0.1 µM
[3] = second compound 0.0316 µM, first compound 0.316 µM
[4] = second compound 0.0316 µM, first compound 1 µM
[5] = second compound 0.0316 µM, first compound 3.16 µM
[6] = second compound 0.0316 µM, first compound 10 µM
[7] = second compound 0.1 µM, first compound 0.0316 µM
[8] = second compound 0.1 µM, first compound 0.1 µM
[9] = second compound 0.1 µM, first compound 0.316 µM
[10] = second compound 0.1 µM, first compound 1 µM
[11] = second compound 0.1 µM, first compound 3.16 µM
[12] = second compound 0.1 µM, first compound 10 µM
[13] = second compound 0.316 µM, first compound 0.0316 µM
[14] = second compound 0.316 µM, first compound 0.1 µM
[15] = second compound 0.316 µM, first compound 0.316 µM
[16] = second compound 0.316 µM, first compound 1 µM
[17] = second compound 0.316 µM, first compound 3.16 µM
[18] = second compound 0.316 µM, first compound 10 µM
[19] = second compound 1 µM, first compound 0.0316 µM
[20] = second compound 1 µM, first compound 0.1 µM
[21] = second compound 1 µM, first compound 0.316 µM
[22] = second compound 1 µM, first compound 1 µM
[23] = second compound 1 µM, first compound 3.16 µM
[24] = second compound 1 µM, first compound 10 µM
[25] = second compound 3.16 µM, first compound 0.0316 µM
[26] = second compound 3.16 µM, first compound 0.1 µM
[27] = second compound 3.16 µM, first compound 0.316 µM
[28] = second compound 3.16 µM, first compound 1 µM
[29] = second compound 3.16 µM, first compound 3.16 µM
[30] = second compound 3.16 µM, first compound 10 µM
[31] = second compound 10 µM, first compound 0.0316 µM
[32] = second compound 10 µM, first compound 0.1 µM
[33] = second compound 10 µM, first compound 0.316 µM
[34] = second compound 10 µM, first compound 1 µM
[35] = second compound 10 µM, first compound 3.16 µM
[36] = second compound 10 µM, first compound 10 µM
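Further: spheroids exposed to the compounds for one week.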
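Wherever viability, T/C is given: percent of tumor spheroid viability relative to DMSO vehicle control wells.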

Structure (SMILES): C=CCn1c(=O)c2cnc(Nc3ccc(N4CCN(C)CC4)cc3)nc2n1-c1cccc(C(C)(C)O)n1 + CN(C)c1ccc(Nc2c3ccc(NC(=O)CCN4CCCC4)cc3nc3cc(NC(=O)CCN4CCCC4)ccc23)cc1
- IC50 (second compound 0.0316 µM): 415 nM
- IC50 (second compound 0.1 µM): 311 nM
- IC50 (second compound 0.316 µM): 341 nM
- IC50 (second compound 1 µM): 462 nM
- IC50 (second compound 3.16 µM): 358 nM
- IC50 (second compound 10 µM): < 31.6 nM
- viability, T/C [1]: 104%
- viability, T/C [2]: 102%
- viability, T/C [3]: 62.7%
- viability, T/C [4]: 8.77%
- viability, T/C [5]: 3.39%
- viability, T/C [6]: 2.43%
- viability, T/C [7]: 120%
- viability, T/C [8]: 98.9%
- viability, T/C [9]: 51.7%
- viability, T/C [10]: 7.71%
- viability, T/C [11]: 3.11%
- viability, T/C [12]: 2.74%
- viability, T/C [13]: 122%
- viability, T/C [14]: 93.5%
- viability, T/C [15]: 58%
- viability, T/C [16]: 9.28%
- viability, T/C [17]: 2.73%
- viability, T/C [18]: 2.28%
- viability, T/C [19]: 102%
- viability, T/C [20]: 103%
- viability, T/C [21]: 70.5%
- viability, T/C [22]: 8.23%
- viability, T/C [23]: 2.54%
- viability, T/C [24]: 2.76%
- viability, T/C [25]: 105%
- viability, T/C [26]: 98.3%
- viability, T/C [27]: 55.2%
- viability, T/C [28]: 8.19%
- viability, T/C [29]: 2.51%
- viability, T/C [30]: 2.74%
- viability, T/C [31]: 22%
- viability, T/C [32]: 22.4%
- viability, T/C [33]: 12.2%
- viability, T/C [34]: 5.57%
- viability, T/C [35]: 1.22%
- viability, T/C [36]: 1.46%

Structure (SMILES): COc1ncnc(C2CC2)c1-c1ncc2cnn(Cc3ccc(-c4nc(C(F)(F)F)cn4C(C)C)cc3)c2n1 + CN(C)c1ccc(Nc2c3ccc(NC(=O)CCN4CCCC4)cc3nc3cc(NC(=O)CCN4CCCC4)ccc23)cc1
- IC50 (second compound 0.0316 µM): > 10000 nM
- IC50 (second compound 0.1 µM): > 10000 nM
- IC50 (second compound 0.316 µM): > 10000 nM
- IC50 (second compound 1 µM): > 10000 nM
- IC50 (second compound 3.16 µM): > 10000 nM
- IC50 (second compound 10 µM): < 31.6 nM
- viability, T/C [1]: 107%
- viability, T/C [2]: 102%
- viability, T/C [3]: 93.3%
- viability, T/C [4]: 104%
- viability, T/C [5]: 100%
- viability, T/C [6]: 92.3%
- viability, T/C [7]: 103%
- viability, T/C [8]: 103%
- viability, T/C [9]: 97.3%
- viability, T/C [10]: 93.6%
- viability, T/C [11]: 92.5%
- viability, T/C [12]: 81.4%
- viability, T/C [13]: 105%
- viability, T/C [14]: 108%
- viability, T/C [15]: 103%
- viability, T/C [16]: 103%
- viability, T/C [17]: 104%
- viability, T/C [18]: 85.8%
- viability, T/C [19]: 95%
- viability, T/C [20]: 97.2%
- viability, T/C [21]: 103%
- viability, T/C [22]: 91%
- viability, T/C [23]: 101%
- viability, T/C [24]: 87.4%
- viability, T/C [25]: 99.4%
- viability, T/C [26]: 107%
- viability, T/C [27]: 106%
- viability, T/C [28]: 83.9%
- viability, T/C [29]: 81.3%
- viability, T/C [30]: 50.3%
- viability, T/C [31]: 28.5%
- viability, T/C [32]: 18.7%
- viability, T/C [33]: 16.4%
- viability, T/C [34]: 15.3%
- viability, T/C [35]: 11.9%
- viability, T/C [36]: 5.91%
